From ChEMBL document CHEMBL6078635, “Advances in diarylpyrimidines and related analogues as HIV-1 nonnucleoside reverse transcriptase inhibitors (2019-2023)” (Eur J Med Chem, 2024)

What was measured:
[1] = system: Human immunodeficiency virus 1; test: Antiviral activity against wild type HIV-1; type: functional, organism-based
[2] = system: Human immunodeficiency virus 1; test: Antiviral activity against HIV-1 […] mutant; type: functional, organism-based
[3] = system: Human immunodeficiency virus 1; test: Antiviral activity against HIV1 harboring Y181C mutant infected in MT4 cells; type: functional, organism-based; conditions: Human immunodeficiency virus 1, MT4
[4] = system: Human immunodeficiency virus 1; test: Antiviral activity against HIV1 harboring K103N mutant infected in MT4 cells; type: functional, organism-based; conditions: Human immunodeficiency virus 1, MT4
[5] = system: Human immunodeficiency virus 1; test: Antiviral activity against HIV1 harboring Y188L mutant infected in MT4 cells; type: functional, organism-based; conditions: Human immunodeficiency virus 1, MT4
[6] = system: Human immunodeficiency virus 1; test: Antiviral activity against HIV1 harboring E138K mutant infected in MT4 cells; type: functional, organism-based; conditions: Human immunodeficiency virus 1, MT4
[7] = system: Human immunodeficiency virus 1; test: Antiviral activity against HIV1 harboring F227L/V106A double mutant infected in MT4 cells; type: functional, organism-based; conditions: Human immunodeficiency virus 1, MT4
[8] = system: Human immunodeficiency virus 1; test: Antiviral activity against HIV1 harboring K103N/Y181C double mutant; type: functional, organism-based
MT4 [9] = test: Cytotoxicity against human MT4 cells assessed as reduction in cell viability after 5 days by MTT assay; type: functional; conditions: MT4, 120 h, time 5 day
[10] = target: Human immunodeficiency virus type 1 reverse transcriptase (Human immunodeficiency virus 1, UniProt Q72547); test: Inhibition of wild type HIV-1 Reverse transcriptase
[11] = Selectivity index, ratio of CC50 for cytotoxicity against human MT4 cells to EC50 for antiviral activity against wild type HIV-1 IIIB infected in human MT4 cells; type: toxicity, cell-based; conditions: read-out: Selectivity Index
[12] = system: Human immunodeficiency virus 1; test: Antiviral activity against HIV-1 3B harboring E138K mutant infected in MT4 cells assessed as reduction in virus induced cytopathic effect incubated for 5 days by MTT assay; type: functional, organism-based; conditions: Human immunodeficiency virus 1, 3B, MT4, 120 h
[13] = system: Human immunodeficiency virus 1; test: Antiviral activity against HIV1 harboring K103N mutant infected in MT4 cells assessed as inhibition of viral growth; type: functional, organism-based; conditions: Human immunodeficiency virus 1, MT4
[14] = system: Human immunodeficiency virus 1; test: Antiviral activity against wild type HIV-1 3B infected in human MT4 cells assessed as inhibition of virus-induced cytopathic effect measured for 5 days by MTT assay; type: functional, organism-based; conditions: Human immunodeficiency virus 1, 3B, MT4, 120 h
[15] = system: Human immunodeficiency virus 1; test: Antiviral activity against HIV-1 3B harboring L100I mutant infected in MT4 cells assessed as reduction in virus induced cytopathic effect incubated for 5 days by MTT method; type: functional, organism-based; conditions: Human immunodeficiency virus 1, 3B, MT4, 120 h
[16] = system: Human immunodeficiency virus 1; test: Antiviral activity against NNRTI-resistant HIV-1 harboring Y181C mutant assessed as inhibition of viral growth; type: functional, organism-based
[17] = system: Human immunodeficiency virus 1; test: Antiviral activity against HIV-1 Y188L mutant infected in human MT4 cells assessed as reduction in virus induced cytopathic effect incubated for 5 days by MTT method; type: functional, organism-based; conditions: Human immunodeficiency virus 1, MT4, 120 h
[18] = system: Human immunodeficiency virus 1; test: Antiviral activity against HIV-1 3B harboring F227L/V106A double mutant infected in MT4 cells assessed as reduction in virus induced cytopathic effect incubated for 5 days by MTT method; type: functional, organism-based; conditions: Human immunodeficiency virus 1, 3B, MT4, 120 h
MT2 = test: Cytotoxicity against human MT2 cells; type: functional
[19] = system: Human immunodeficiency virus 1; test: Antiviral activity against wild type HIV-1 3B; type: functional, organism-based; conditions: Human immunodeficiency virus 1, 3B
[20] = Oral bioavailability in human; type: ADME, organism-based; conditions: in vivo
[21] = system: Human immunodeficiency virus 1; test: Antiviral activity against HIV-1 3B infected in human MT4 cells assessed as inhibition of viral replication incubated for 5 days by MTT assay; type: functional, organism-based; conditions: Human immunodeficiency virus 1, 3B, MT4, 120 h
MT4 [22] = test: Cytotoxicity against human MT4 cells assessed as reduction in cell viability; type: functional
[23] = Lipophilicity, logP of compound; type: physicochemical; conditions: octanol/water

## Cc1cc(-c2ccc(C#N)cc2)cc(C)c1Oc1ccnc(S(=O)(=O)CC(=O)Nc2ccc(C#N)cc2)n1
[1]
  EC50: 6 nM
[2]
  EC50: 8 nM
[3]
  EC50: 26 nM
[4]
  EC50: 6 nM
[5]
  EC50: 122 nM
[6]
  EC50: 26 nM
[7]
  EC50: 642 nM
[8]
  EC50: 226 nM
MT4 [9]
  CC50: 24400 nM
[10]
  IC50: 142 nM
[11]
  selectivity ratio: 4070

## N#Cc1ccc(Nc2nccc(/C(=N/O)c3ccc(-c4ccc(F)cc4)cc3F)n2)cc1
[1]
  EC50: 12 nM
[2]
  EC50: 400 nM
[3]
  EC50: 182 nM
[4]
  EC50: 500 nM
[5]
  EC50: 3430 nM
[6]
  EC50: 170 nM
[7]
  EC50: 4600 nM
[8]
  EC50: 22700 nM
MT4 [9]
  CC50: > 292000 nM

## Cc1cc(C#Cc2cccnc2)cc(C)c1Oc1ccnc(Nc2ccc(C#N)cc2)n1
[1]
  EC50: 3 nM
[2]
  EC50: 76 nM
[4]
  EC50: 10 nM
[7]
  EC50: 209 nM
[8]
  EC50: 935 nM
MT4 [9]
  CC50: 3480 nM

## Cc1cc(-c2ccc(C#N)cc2)cc(C)c1Oc1nc(NC2CCN(Cc3ccc(C(N)=O)cc3)CC2)nc2ccsc12
[8]
  EC50: 125 nM
[12]
  EC50: 23.2 nM
[13]
  EC50: 6.02 nM
[14]
  EC50: 9.93 nM
[15]
  EC50: 10.5 nM
[16]
  EC50: 18.9 nM
[17]
  EC50: 23.9 nM
[18]
  EC50: 97.2 nM

## Cc1cc(C#CC2CCN(Cc3ccncc3)CC2)cc(C)c1Oc1ccnc(Nc2ccc(C#N)cc2)n1
[1]
  EC50: 19 nM
[4]
  EC50: 50 nM
[6]
  EC50: 190 nM
MT2
  CC50: 192000 nM
[11]
  selectivity ratio: 101

## COc1cc2cc(C#N)ccc2c(OC)c1Oc1ccnc(Nc2ccc(C#N)cc2)n1
[1]
  EC50: 5 nM
[8]
  EC50: 160 nM
MT4 [9]
  CC50: > 118000 nM
[11]
  selectivity ratio: > 25000

## COc1ccc(-c2cc(C)c(Oc3nc(NC4CCN(Cc5ccc(C(N)=O)cc5)CC4)nc4ccsc34)c(C)c2)cc1
[8]
  EC50: 1120 nM
[12]
  EC50: 149 nM
[13]
  EC50: 58.4 nM
[14]
  EC50: 52.6 nM
[15]
  EC50: 268 nM
[16]
  EC50: 158 nM
[17]
  EC50: 110 nM
[18]
  EC50: 297 nM

## Cc1cc(/C=C/C#N)cc([N+](=O)[O-])c1Nc1nc(Nc2ccc(C#N)cc2)nc2ccccc12
[19]
  EC50: 3.4 nM
[20]
  bioavailability: 16.5%

## Cc1cc(/C=C/C#N)cc([N+](=O)[O-])c1Nc1nc(Nc2ccc(C#N)cc2)nc2ccc(Cl)cc12
[19]
  EC50: 10.6 nM
[20]
  bioavailability: 16%

## Cc1cc(-c2ccsc2)cc(C)c1Oc1nc(NC2CCN(Cc3ccc(C(N)=O)cc3)CC2)nc2ccsc12
[8]
  EC50: 4520 nM
[12]
  EC50: 739 nM
[13]
  EC50: 171 nM
[14]
  EC50: 240 nM
[15]
  EC50: 925 nM
[16]
  EC50: 741 nM
[17]
  EC50: 628 nM
[18]
  EC50: 854 nM

## Cc1cc(-c2ccc(F)cc2)cc(C)c1Oc1nc(NC2CCN(Cc3ccc(C(N)=O)cc3)CC2)nc2ccsc12
[8]
  EC50: 575 nM
[12]
  EC50: 34.8 nM
[13]
  EC50: 11.7 nM
[14]
  EC50: 12.8 nM
[15]
  EC50: 61.1 nM
[16]
  EC50: 36.1 nM
[17]
  EC50: 51.4 nM
[18]
  EC50: 56.6 nM

## N#Cc1ccc(Nc2nccc(Oc3ccc4cc(C#N)ccc4c3Br)n2)cc1
[1]
  EC50: 2 nM
[8]
  EC50: 240 nM
MT4 [9]
  CC50: 283000 nM
[11]
  selectivity ratio: 181000

## N#Cc1ccc(Nc2nccc(C(C#N)c3ccc(-c4ccc(C#N)cc4)c(F)c3)n2)cc1 (stereo not given)
[2]
  EC50: 1210 nM
[3]
  EC50: 870 nM
[4]
  EC50: 900 nM
[5]
  EC50: 9810 nM
[6]
  EC50: 170 nM
[7]
  EC50: > 25600 nM
[8]
  EC50: > 36500 nM
[21]
  EC50: 20 nM
MT4 [22]
  CC50: 36400 nM

## N#Cc1ccc(Nc2nccc(Oc3ccc4ccccc4c3)n2)cc1
[23]
  logP: 5.36
